Values of other authors as cited in PMC5483895 (Journal of Medicinal Chemistry, 2017).
Read-outs that look alike come from different tables or passages of the source.

Tests used:
CXCR4 [1] = details: mutation of H203 5.42 in CXCR4, range over the ligands named
CCR5 [2] = details: mutation of I198 5.42 in CCR5, range over all ligands named
CXCR4 [3] = details: CXCR4 virtual screening hits
CCR5 [4] = system: CCR5
CXCR3 [5] = details: CXCR3 mutant Y271 6.51 A
CXCR3 [6] = details: CXCR3 mutant W268 6.48 A
CXCR4 [7] = details: CXCR4 mutant I259 6.55 A
CX3CR1 = details: mutations of Lys14, Lys18, Phe49 of the chemokine

Molecule: c1ccc(CNCc2ccc(CN3CCCNCCNCCCNCC3)cc2)nc1 [compound 2]
- fold effect on affinity/potency (CXCR4 [1]): 3–5 fold

Molecule: COC[C@@H](c1ccc(C(F)(F)F)cc1)N1CCN(C2(C)CCN(C(=O)c3c(C)ncnc3C)CC2)C[C@@H]1C [compound 17, Vicriviroc]
- fold decrease in affinity and/or potency (CCR5 [2]): 3–125 fold

Molecule: Cc1ccc(-c2ccc3c(c2)C=C(C(=O)Nc2ccc(C[N+](C)(C)C4CCOCC4)cc2)CCC3)cc1.[Cl-] [compound 19]
- fold decrease in affinity and/or potency (CCR5 [2]): 3–125 fold

Molecule: CC#CCN1C(=O)[C@H]([C@@H](O)C2CCCCC2)NC(=O)C12CCN(Cc1c(C)nn(-c3ccccc3)c1C)CC2 [compound 23]
- fold decrease in affinity and/or potency (CCR5 [2]): 3–125 fold

Molecule: Cc1ccc(-c2nc3n(c2/C=N/N=C(N)N)CCS3)cc1 [compound 76]
- affinity (CXCR4 [3]): 225 µM

Molecule: Cc1nc(CN(C)CC2CCCN(CCc3ccccc3C)C2)c[nH]1 (stereo not shown) [compound 78]
- affinity (CXCR4 [3]): 0.31 µM

Molecule: CCL3: CC chemokine
- fold effect on binding (CCR5 [4]; CCR5 mutant W248 6.48 A): 10 fold
- fold effect on binding (CCR5 [4]; CCR5 mutant Y251 6.51 A/I): 7 fold

Molecule: CXCL11: chemokine, CXCR3 ligand
- fold decrease of binding (CXCR3 [5]): more than 10 fold
- fold decrease of potency (CXCR3 [6]): more than 10 fold

Molecule: CXCL12: endogenous chemokine ligand of CXCR4
- fold effect on potency (CXCR4 [7]): 8 fold

Molecule: Maraviroc [compound 16]
- fold decrease in affinity and/or potency (CCR5 [2]): 3–125 fold

B1: CX3CL1: human CX3C chemokine (protein, UniProt P78423 25-397, looked up)
Fractalkine: QHHGVTKCNITCSKMTSKIPVALLIHYQQNQASCGKRAIILETRQHRLFCADPKEQWVKDAMQHLDRQAAALTRNGGTFEKQIGEVKPRTTPAAGGMDESVVLEPEATGESSSLEPTPSSQEAQRALGTSPELPTGVTGSSGTRLPPTPKAQDGGPVGTELFRVPPVSTAATWQSSAPHQPGPSLWAEAKTSEAPSTQDPSTQASTASSPAPEENAPSEGQRVWGQGQSPRPENSLEREEMGPVPAHTDAFQDWGPGSMAHVSVVPVSSEGTPSREPVASGSWTPKAEEPIHATMDPQRLGVLITPVPDAQAATRRQAVGLLAFLGLLFCLGVAMFTYQSLQGCPRKMAGEMAEGLRYIPRSCGSNSYVLVPV
- fold reduction of affinity for the receptor (CX3CR1): more than 10 fold
